Values joined by “and” are separate entries in the source; they are usually repeats but may differ in a detail not shown here. Identical values can stand only once.
What was measured:
[1] = molecular target: T1, Adenosine A2A receptor (Homo sapiens, UniProt P29274); experiment: Adenosine A2A receptor competitive binding assay (Tag-lite HTRF); settings: Tag-lite adenosine A2A receptor ligand binding
How it was run: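 Tag-lite HTRF competition: donor-labelled cells expressing human A2A were mixed with serially diluted compounds (DMSO 0.6% in dilutions) and red fluorescent A2A antagonist ligand (60 nM stock). Incubated 2 h at room temperature before HTRF readout.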

[2] = molecular target: T1, Adenosine A2A receptor; experiment: cAMP assay in 293A cells stably expressing the adenosine A2A receptor (CGS21680 stimulation, HTRF); assay type: cell-based; design: expressed in transfected cells; host or cells: 293A cells (Invitrogen, Cat# R705-07) infected with A2A-expressing lentivirus (custom packaged by Biosettia), puromycin selected; settings: 293A-A2AR cells, 0.1% BSA
[3] = 2 h room temperature, values separated by / are repeat determinations
[4] = 8 nM CGS, values separated by / are repeat determinations, read-out: cAMP (nM) 0.1% BSA, 8 nM CGS
[5] = 1 uM CGS, values separated by / are repeat determinations, read-out: cAMP (nM) 0.1% BSA, 1 uM CGS
[6] = 8 nM CGS, read-out: cAMP (nM) 0.1% BSA, 8 nM CGS
[7] = 1 uM CGS, read-out: cAMP (nM) 0.1% BSA, 1 uM CGS

T1 sequence (P29274 whole entry): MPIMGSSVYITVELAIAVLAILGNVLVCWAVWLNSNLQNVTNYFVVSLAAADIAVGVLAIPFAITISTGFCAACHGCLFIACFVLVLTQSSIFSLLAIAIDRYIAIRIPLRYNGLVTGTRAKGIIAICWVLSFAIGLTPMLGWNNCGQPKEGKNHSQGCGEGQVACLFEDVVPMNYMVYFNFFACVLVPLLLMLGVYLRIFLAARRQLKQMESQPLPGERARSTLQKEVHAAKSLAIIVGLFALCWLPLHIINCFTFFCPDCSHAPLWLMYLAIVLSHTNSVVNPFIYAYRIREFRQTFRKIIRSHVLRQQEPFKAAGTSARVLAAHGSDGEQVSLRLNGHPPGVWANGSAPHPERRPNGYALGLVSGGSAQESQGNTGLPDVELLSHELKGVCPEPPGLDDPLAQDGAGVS

| SMILES | IC50 [1, 3] | IC50 [2, 4] | IC50 [2, 5] | IC50 ([1]; HTRF) | IC50 [2, 6] | IC50 [2, 7] |
| --- | --- | --- | --- | --- | --- | --- |
| Cc1cc(-c2c(OCc3cccc(=O)n3C(C)C)nc(N)nc2-c2ccc(F)cc2)cc(C(F)F)n1 [Example 186, 6-(((2-amino-5-(2-(difluoromethyl)-6-methylpyridin-4-yl)-6-(4-fluorophenyl)pyrimidin-4-yl)oxy)methyl)-1-isopropylpyridin-2(1H)-one] | 2.6 nM | 4.1 nM | 10500 nM |  |  |  |
| Cc1cc(-c2c(OCC3CCC(C)(O)CC3)nc(N)nc2-c2ccc(F)cc2)cc(C(F)F)n1 (stereo not drawn) [Example 197, 4-(((2-amino-5-(2-(difluoromethyl)-6-methylpyridin-4-yl)-6-(4-fluorophenyl)pyrimidin-4-yl)oxy)methyl)-1-methylcyclohexan-1-ol] |  |  |  | 19.1 nM | 6.3 nM |  |
| CCN(CC(C)O)C(=O)COc1nc(N)nc(-c2ccc(F)cc2)c1-c1cc(C)nc(C(F)F)c1 (stereo not drawn) [Example 198, 2-((2-amino-5-(2-(difluoromethyl)-6-methylpyridin-4-yl)-6-(4-fluorophenyl)pyrimidin-4-yl)oxy)-N-ethyl-N-(2-hydroxypropyl)acetamide] |  |  |  | 14.9 nM | 10 nM |  |
| Cc1cc(-c2c(OCC(CO)N(C)c3ccccn3)nc(N)nc2-c2ccc(F)cc2)cc(C(F)F)n1 (stereo not drawn) [Example 199, 3-((2-amino-5-(2-(difluoromethyl)-6-methylpyridin-4-yl)-6-(4-fluorophenyl)pyrimidin-4-yl)oxy)-2-(methyl(pyridin-2-yl)amino)propan-1-ol] |  |  |  | 7.2 nM |  | 148 nM |
| Cc1cc(-c2c(OCC(O)CN(C)c3ccccn3)nc(N)nc2-c2ccc(F)cc2)cc(C(F)F)n1 (stereo not drawn) [Example 201, 1-((2-amino-5-(2-(difluoromethyl)-6-methylpyridin-4-yl)-6-(4-fluorophenyl)pyrimidin-4-yl)oxy)-3-(methyl(pyridin-2-yl)amino)propan-2-ol] |  |  |  | 1 nM and 6.5 nM | 4.2 nM and 3.5 nM |  |
| CCc1nnn(CC)c1COc1nc(N)nc(-c2ccc(F)cc2)c1-c1cc(C)nc(C(F)F)c1 [Example 202, 4-((1,4-diethyl-1H-1,2,3-triazol-5-yl)methoxy)-5-(2-(difluoromethyl)-6-methylpyridin-4-yl)-6-(4-fluorophenyl)pyrimidin-2-amine] |  |  |  | 3.5 nM | 16 nM |  |
| Cc1cc(-c2c(O)nc(N)nc2-c2ccc(F)cc2)cc(C(F)F)n1 [Example 206, 2-amino-5-(2-(difluoromethyl)-6-methylpyridin-4-yl)-6-(4-fluorophenyl)pyrimidin-4-ol] |  |  |  | 9.2 nM | 10 nM | 4660 nM |
| Cc1cc(-c2c(OCCOc3ccnc(N(C)CCO)c3)nc(N)nc2-c2ccc(F)cc2)cc(C(F)F)n1 [Example 212, 2-((4-(2-((2-amino-5-(2-(difluoromethyl)-6-methylpyridin-4-yl)-6-(4-fluorophenyl)pyrimidin-4-yl)oxy)ethoxy)pyridin-2-yl)(methyl)amino)ethan-1-ol] |  |  |  | 174 nM | 62 nM |  |
| Cc1cc(-c2c(OCCOc3cccc(N(C)CCO)n3)nc(N)nc2-c2ccc(F)cc2)cc(C(F)F)n1 [Example 213, 2-((6-(2-((2-amino-5-(2-(difluoromethyl)-6-methylpyridin-4-yl)-6-(4-fluorophenyl)pyrimidin-4-yl)oxy)ethoxy)pyridin-2-yl)(methyl)amino)ethan-1-ol] |  |  |  | 9.3 nM | 3.4 nM | 7.16 nM |
| Cc1cc(-c2c(OCc3ccn(CC4CC4)n3)nc(N)nc2-c2ccc(F)cc2)cc(C(F)F)n1 [Example 214] |  |  |  | 4.5 nM |  | 327 nM |
| Cc1cc(-c2c(OCc3ccc(C(C)(C)O)cn3)nc(N)nc2-c2ccc(F)cc2)cc(C(F)F)n1 [Example 217, 2-(6-(((2-amino-5-(2-(difluoromethyl)-6-methylpyridin-4-yl)-6-(4-fluorophenyl)pyrimidin-4-yl)oxy)methyl)pyridin-3-yl)propan-2-ol] |  |  |  | 21 nM |  | 6500 nM |

Next, values leading:

| IC50 [1, 3] | IC50 [2, 4] | IC50 [2, 5] | IC50 ([1]; HTRF) | IC50 [2, 6] | IC50 [2, 7] | SMILES |
| --- | --- | --- | --- | --- | --- | --- |
| 39 nM | 12 nM |  |  |  |  | Cc1cc(-c2c(OCc3ncc(C#N)n3C(C)C)nc(N)nc2-c2ccc(F)cc2)cc(C(F)F)n1 [Example 191, 2-(((2-amino-5-(2-(difluoromethyl)-6-methylpyridin-4-yl)-6-(4-fluorophenyl)pyrimidin-4-yl)oxy)methyl)-1-isopropyl-1H-imidazole-5-carbonitrile] |
| 26 nM | 9.7 nM |  |  |  |  | Cc1cc(-c2c(OCc3ncc(S(C)(=O)=O)n3C(C)C)nc(N)nc2-c2ccc(F)cc2)cc(C(F)F)n1 [Example 192, 5-(2-(difluoromethyl)-6-methylpyridin-4-yl)-4-(4-fluorophenyl)-6-((1-isopropyl-5-(methylsulfonyl)-1H-imidazol-2-yl)methoxy)pyrimidin-2-amine] |
| 0.6 nM and 1.7 nM | 1.5 nM | 151 nM |  |  |  | Cc1cc(-c2c(OCc3nccn3C3CCC3)nc(N)nc2-c2ccc(F)cc2)cc(C(F)F)n1 [Example 194, 4-((1-cyclobutyl-1H-imidazol-2-yl)methoxy)-5-(2-(difluoromethyl)-6-methylpyridin-4-yl)-6-(4-fluorophenyl)pyrimidin-2-amine] |
|  |  |  | 3 nM | 9.6 nM |  | Cc1cc(-c2c(OCc3nc(C#N)cn3C(C)C)nc(N)nc2-c2ccc(F)cc2)cc(C(F)F)n1 [Example 203] |
|  |  |  | 12 nM | 29 nM |  | Cc1cc(-c2c(OCc3nccn3C(C)C(=O)O)nc(N)nc2-c2ccc(F)cc2)cc(C(F)F)n1 (stereo not drawn) [Example 205, 2-(2-(((2-amino-5-(2-(difluoromethyl)-6-methylpyridin-4-yl)-6-(4-fluorophenyl)pyrimidin-4-yl)oxy)methyl)-1H-imidazol-1-yl)propanoic acid] |
|  |  |  | 28 nM | 29 nM |  | Cc1cc(-c2c(OCc3nccn3CC(C)C(=O)O)nc(N)nc2-c2ccc(F)cc2)cc(C(F)F)n1 (stereo not drawn) [Example 207, 3-(2-(((2-amino-5-(2-(difluoromethyl)-6-methylpyridin-4-yl)-6-(4-fluorophenyl)pyrimidin-4-yl)oxy)methyl)-1H-imidazol-1-yl)-2-methylpropanoic acid] |
|  |  |  | 3.4 nM | 1.4 nM and 1 nM | 394 nM | Cc1cc(-c2c(OCc3cn(C(C)C)nn3)nc(N)nc2-c2ccc(F)cc2)cc(C(F)F)n1 [Example 208, 5-(2-(difluoromethyl)-6-methylpyridin-4-yl)-4-(4-fluorophenyl)-6-((1-isopropyl-1H-1,2,3-triazol-4-yl)methoxy)pyrimidin-2-amine] |
|  |  |  | 3.4 nM and 5.4 nM | 3.7 nM and 5.4 nM | 2250 nM | Cc1cc(-c2c(OCc3nccn3C3CC(O)C3)nc(N)nc2-c2ccc(F)cc2)cc(C(F)F)n1 (stereo not drawn) [Example 210, 3-(2-(((2-amino-5-(2-(difluoromethyl)-6-methylpyridin-4-yl)-6-(4-fluorophenyl)pyrimidin-4-yl)oxy)methyl)-1H-imidazol-1-yl)cyclobutan-1-ol] |
|  |  |  | 47 nM | 7.3 nM |  | Cc1cc(-c2c(OCc3nc(S(C)(=O)=O)cn3C(C)C)nc(N)nc2-c2ccc(F)cc2)cc(C(F)F)n1 [Example 211, 5-(2-(difluoromethyl)-6-methylpyridin-4-yl)-4-(4-fluorophenyl)-6-((1-isopropyl-4-(methylsulfonyl)-1H-imidazol-2-yl)methoxy)pyrimidin-2-amine] |
|  |  |  | 9.7 nM |  | 965 nM | Cc1cc(-c2c(OCc3nccn3CS(C)(=O)=O)nc(N)nc2-c2ccc(F)cc2)cc(C(F)F)n1 [Example 215, 5-(2-(difluoromethyl)-6-methylpyridin-4-yl)-4-(4-fluorophenyl)-6-((1-((methylsulfonyl)methyl)-1H-imidazol-2-yl)methoxy)pyrimidin-2-amine] |

— US20210355104A1, “ADENOSINE RECEPTOR BINDING COMPOUNDS” (Nikang Therapeuticsm Inc., priority 2018, published 2021)
